Earlier results, collected in paper PMC8672822 (RSC Medicinal Chemistry, 2021).
Read-outs that look alike come from different tables or passages of the source. Blank lines part the entries; values can stand above or below the compound they belong to.

Key:
DC-SIGN [1] = settings: SPR competition
murine Mincle = settings: murine isoform
[2] = tested on: peripheral blood mononuclear cells (PBMCs) or bone marrow-derived macrophages (BMDM)
human Mincle = settings: human isoform
Langerin [3] = tested on: Langerin
DC-SIGN [4] = settings: monovalent
[5] = in comparison to Man-α-1,2-Man
DC-SIGN [6] = tested on: DC-SIGN
Langerin [7] = tested on: Langerin; remark: listed apart in the source
DC-SIGN [8] = settings: SPR direct
DC-SIGN [9] = settings: ITC
DC-SIGN [10] = settings: relative to plate assay

Compound: 2-C-aminomethyl-D-mannose [compound 21]
IC50 (DC-SIGN [1]): 350 µM

Compound: Cc1cc(O)cc(O)c1C(=O)OC[C@H]1O[C@H](O[C@H]2O[C@H](COC(=O)c3c(C)cc(O)cc3O)[C@@H](O)[C@H](O)[C@H]2O)[C@H](O)[C@@H](O)[C@@H]1O [compound 3, brartemicin]
binding (murine Mincle): no binding | Ki (bovine Mincle): 5.5 µM | Mincle-induced immune activation [2]: no or a less effective Mincle-induced immune activation | binding (human Mincle): no binding

Compound: CC(=O)NCCO[C@@H]1O[C@H](CO)[C@@H](O)[C@H](O)[C@H]1NS(=O)(=O)c1ccc(C)cc1 [compound 19]
increase in binding affinity compared to the reference N-acetyl glucosamine (Langerin [3]): 13 fold

Compound: NC(=O)[C@H](CCC(=O)O)NC(=O)[C@H]1C[C@@H](O)[C@H](O)[C@H](O)[C@H]1SCCCCSCc1cccc(F)c1 [compound 22]
IC50 (DC-SIGN [4]): 3200 µM

Compound: COC(=O)[C@H]1C[C@H](OCCN)[C@@H](O[C@H]2O[C@H](CO)[C@@H](O)[C@H](O)[C@@H]2O)C[C@@H]1C(=O)OC [compound 24]
activity in comparison to Man-α-1,2-Man (DC-SIGN+ cells): three times more active | resistance towards enzymatic digestion [5]: more resistant

Compound: [N-]=[N+]=NCCO[C@H]1C[C@H](C(=O)NCc2ccc(CO)cc2)[C@@H](C(=O)NCc2ccc(CO)cc2)C[C@@H]1O[C@H]1O[C@H](CO)[C@@H](O)[C@H](O)[C@@H]1O [compound 25]
IC50 (DC-SIGN [6]; SPR competition): 300 µM

Compound: CC(C)OC(=O)c1ccc(-c2ccc(/C=C3\C(=O)N(c4ccc(S(N)(=O)=O)cc4)N=C3C(F)(F)F)o2)cc1 [compound 33]
decrease in affinity in cellular assay (DC-SIGN [10]): up to 100 fold

Compound: OC[C@H]1O[C@H](O[C@H]2O[C@H](CO)[C@@H](O)[C@H](O)[C@H]2O)[C@H](O)[C@@H](O)[C@@H]1O [trehalose]
macrophage activation (macrophage): no effect

Further lines, with some results ahead:

IC50 (DC-SIGN [6]; SPR competitive): 254 µM | Kd (DC-SIGN [8]): 310 µM | Kd (DC-SIGN [9]): 171 µM
Compound: [N-]=[N+]=NCCO[C@H]1C[C@H](C(=O)NCc2ccc(CO)cc2)[C@@H](C(=O)NCc2ccc(CO)cc2)C[C@@H]1O[C@H]1O[C@H](CN)[C@@H](O)[C@H](O)[C@@H]1O [compound 26]
selectivity for DC-SIGN over Langerin (Langerin [7]): fully selective for DC-SIGN over Langerin

IC50 (DC-SIGN [6]; SPR competitive): 76 µM | Kd (DC-SIGN [8]): 53 µM | Kd (DC-SIGN [9]): 52 µM
Compound: NCc1cn([C@@H]2[C@@H](O[C@H]3C[C@H](C(=O)NCc4ccc(CO)cc4)[C@@H](C(=O)NCc4ccc(CO)cc4)C[C@@H]3OCCCl)O[C@H](CO)[C@@H](O)[C@@H]2O)nn1 [compound 27]
selectivity for DC-SIGN over Langerin (Langerin [7]): full selectivity against Langerin

aqueous solubility: improved aqueous solubility
Compound: NC(=O)c1ccc(CCCC2Nc3ccc(C(=O)N4CCN(c5ncccn5)CC4)cc3NC2=O)cc1 (stereo not shown) [compound 35]

aqueous solubility: improved aqueous solubility
Compound: NS(=O)(=O)c1ccc(CCCC2Nc3ccc(C(=O)N4CCN(c5ccncc5)CC4)cc3NC2=O)cc1 (stereo not shown) [compound 36]
